In ChEMBL document CHEMBL5352500, “HSF1 Pathway Inhibitor Clinical Candidate (CCT361814/NXP800) Developed from a Phenotypic Screen as a Potential Treatment for Refractory Ovarian Cancer and Other Malignancies” (J Med Chem, 2023):
Values belong to the compound of their own block, whether it stands above or below them. Calls of active or inactive are those of the source. No cut-off for these calls is given here.

How the values were obtained:
[1] = AUC (0 to 6 hrs) in BALB/c mouse at 5 mg/kg, po measured for 24 hrs by LC-ESI-MS/MS analysis; assay type: ADME, organism-based; parameters: time 24 hrs, dose 5 mg/kg, route po; conditions: in vivo
[2] = Fraction unbound in BALB/c mouse blood at 5 mg/kg, po or 5 mg/kg, iv measured for 24 hrs by LC-MS/MS analysis; assay type: ADME, organism-based
[3] = Unbound AUC (0 to 6 hrs) in BALB/c mouse at 5 mg/kg, po or 5 mg/kg, iv measured for 24 hrs by LC-MS/MS analysis; assay type: ADME, organism-based; conditions: in vivo
Mus musculus = species: Mus musculus; conditions: dose 50.0 mg/kg, route po
OVCAR-8 = test: Antiproliferative activity against human OVCAR-8 cells assessed as cell growth inhibition measured after 96 hrs by resazurin dye based celltiter-blue viability assay; assay type: functional
OVCAR-5 = test: Antiproliferative activity against human OVCAR-5 cells assessed as cell growth inhibition measured after 96 hrs by resazurin dye based celltiter-blue viability assay; assay type: functional
CH1 = test: Antiproliferative activity against human CH1 cells assessed as cell growth inhibition measured after 96 hrs by resazurin dye based celltiter-blue viability assay; assay type: functional
PA-1 = test: Antiproliferative activity against human PA-1 cells assessed as cell growth inhibition measured after 96 hrs by resazurin dye based celltiter-blue viability assay; assay type: functional
[4] = Stability in pooled mouse plasma assessed as drug degradation at 1 uM; assay type: ADME, cell-free
IGROV-1 = test: Antiproliferative activity against human IGROV-1 cells assessed as cell growth inhibition measured after 96 hrs by resazurin dye based celltiter-blue viability assay; assay type: functional
physchem = conditions: buffer, pH 7.4
OVCAR-3 = test: Antiproliferative activity against human OVCAR-3 cells assessed as cell growth inhibition measured after 96 hrs by resazurin dye based celltiter-blue viability assay; assay type: functional
Caov-3 cell line = test: Antiproliferative activity against human Caov-3 cells assessed as cell growth inhibition measured after 96 hrs by resazurin dye based celltiter-blue viability assay; assay type: functional
RMG-I = test: Antiproliferative activity against human RMG-I cell line assessed as cell growth inhibition measured after 96 hrs by resazurin dye based celltiter-blue viability assay; assay type: functional
[5] = Unbound AUC (0 to 6 hrs) in BALB/c mouse at 5 mg/kg, po or 1 mg/kg, iv measured for 24 hrs by LC-MS/MS analysis; assay type: ADME, organism-based; conditions: in vivo
[6] = Reversal of doxorubicin resistance in human doxorubicin resistant CH1 cells assessed as doxorubicin GI50 incubated for 96 hrs by resazurin dye based celltiter-blue cell viability assay (reference value: 310 nM); assay type: functional

AUC [1]: 3.9 µM·h | fraction unbound at 24 h [2]: 0.005 | fAUC [3]: 20 nM·h
Structure (SMILES): CCN1CCN(Cc2ccc3cc(C(=O)Nc4cc(NC(=O)c5ccc6c(c5)OCCO6)ccc4Cl)ccc3n2)CC1

Structure (SMILES): CCN1CCN(Cc2ccc3cc(C(=O)Nc4cc(NC(=O)c5ccc6c(c5)OCCO6)ccc4F)ccc3n2)CC1
inhibition (Mus musculus): Active

GI50 (OVCAR-8): 50.1 nM | GI50 (OVCAR-5): 50.1 nM | Stability [4]: Stable | logD (physchem): 2.1 | GI50 (OVCAR-3): 50.1 nM
Structure (SMILES): Cc1ccc(NC(=O)c2ccc3c(c2)OCCO3)cc1NC(=O)c1ccc2nc(OCCN3CCCC3)ccc2c1
GI50 (CH1): 50.1 nM | GI50 (PA-1): 50.1 nM | GI50 (IGROV-1): 50.1 nM | GI50 (Caov-3 cell line): 50.1 nM | GI50 (RMG-I): 50.1 nM

fAUC [3]: 12 nM·h
Structure (SMILES): Cc1ccc(NC(=O)c2ccc3c(c2)OCCO3)cc1NC(=O)c1ccc2nc(OCCN3CCCCC3)ccc2c1

fAUC [5]: 26 nM·h
Structure (SMILES): CC(C)N1CCN(Cc2ccc3cc(C(=O)Nc4cc(NC(=O)c5ccc6c(c5)OCCO6)ccc4Cl)ccc3n2)CC1

Structure (SMILES): COc1ccc(CCN(C)CCCC(C#N)(c2ccc(OC)c(OC)c2)C(C)C)cc1OC (configuration not stated)
GI50 [6]: 1.9 nM
